From PMC5387711 (Cell Discovery, 2017)

Molecular target: T1, CARF (hCARF; collaborator of ARF) (Homo sapiens, UniProt Q9NXV6)
T1 construct: gene CDKN2AIP; full length; site Cys-516 in C-terminal fragment C1
T1 sequence (Q9NXV6 2-580): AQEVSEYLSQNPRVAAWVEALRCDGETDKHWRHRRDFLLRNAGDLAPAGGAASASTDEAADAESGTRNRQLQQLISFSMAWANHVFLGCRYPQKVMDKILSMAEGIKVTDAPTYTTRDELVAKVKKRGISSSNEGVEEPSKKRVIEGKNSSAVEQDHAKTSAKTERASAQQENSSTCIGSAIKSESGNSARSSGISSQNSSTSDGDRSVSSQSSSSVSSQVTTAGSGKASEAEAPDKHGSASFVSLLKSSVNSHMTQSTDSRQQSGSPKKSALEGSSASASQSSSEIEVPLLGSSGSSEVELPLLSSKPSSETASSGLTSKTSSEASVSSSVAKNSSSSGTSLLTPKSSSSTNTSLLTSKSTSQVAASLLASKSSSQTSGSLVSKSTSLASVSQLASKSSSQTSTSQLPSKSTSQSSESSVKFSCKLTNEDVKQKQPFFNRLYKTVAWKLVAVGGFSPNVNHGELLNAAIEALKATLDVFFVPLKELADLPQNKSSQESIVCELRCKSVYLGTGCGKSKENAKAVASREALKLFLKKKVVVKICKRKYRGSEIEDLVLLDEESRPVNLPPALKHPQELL
Assay: competition with S-614 for bead-bound His6-hCARF
Type: binding
Conditions: 15 uM NC043 against 7.5 uM S-614, 1 h, 4 C; covalent (Cys-516)

SMILES: C=C1C(=O)[C@]23CC[C@H]1C[C@H]2[C@@]12CCC[C@@](C)(COC1=O)[C@H]2C[C@H]3O [NC043]
- competition with S-614 for bead-bound His6-hCARF: S-614 directly binds to CARF, which could be competed off by NC043
